According to ChEMBL document CHEMBL1201862, “PubChem BioAssay data set” (2004):
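Growth conditions: 96-well plates. Treatment: test compound, 48 hours, 5 concentrations. Analysis: linear interpolation between bracketing concentrations; unreached endpoints set to highest concentration. Abbreviation: GI50, concentration required for 50% inhibition of growth.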 Activity calls are given as the source filed them. Rule as the data show it: active = GI50 up to about 1.1 µM and inactive = higher.

Assays:
Test in all cases: NCI anticancer screen, dose series, 48 h
[1] = tested on: 786-0
[2] = tested on: A498
[3] = tested on: A549
[4] = tested on: ACHN
[5] = tested on: BT-549
[6] = tested on: CAKI-1
[7] = tested on: CCRF-CEM
[8] = tested on: COLO 205
[9] = tested on: DU-145
[10] = tested on: HCC 2998
[11] = tested on: HCT-116
[12] = tested on: HCT-15
[13] = tested on: HL-60
[14] = tested on: HOP-92
[15] = tested on: HT-29
[16] = tested on: Hs-578T
[17] = tested on: K562
[18] = tested on: KM12
[19] = tested on: LOX IMVI
[20] = tested on: MDA-MB-231
[21] = tested on: MDA-MB-435
[22] = tested on: MDA-N
[23] = tested on: Malme-3M
[24] = tested on: NCI-H226
[25] = tested on: NCI-H23
[26] = tested on: NCI-H460
[27] = tested on: NCI-H522
[28] = tested on: NCI/ADR-RES
[29] = tested on: OVCAR-4
[30] = tested on: OVCAR-8
[31] = tested on: PC-3
[32] = tested on: RPMI-8226
[33] = tested on: SF-268
[34] = tested on: SK-MEL-28
[35] = tested on: SK-MEL-2
[36] = tested on: SK-MEL-5
[37] = tested on: SN12C
[38] = tested on: SNB-19
[39] = tested on: SNB-75
[40] = tested on: SR
[41] = tested on: SW-620
[42] = tested on: T47D
[43] = tested on: TK-10
[44] = tested on: U-251
[45] = tested on: UACC-257
[46] = tested on: UACC-62
[47] = tested on: UO-31
[48] = tested on: EKVX
[49] = tested on: HOP-62
[50] = tested on: IGROV-1
[51] = tested on: M14
[52] = tested on: MCF7
[53] = tested on: MOLT-4
[54] = tested on: OVCAR-3
[55] = tested on: OVCAR-5
[56] = tested on: RXF 393
[57] = tested on: SF-295
[58] = tested on: SF-539

Cn1ccc(C(=O)N2CCSC2=S)c(OCc2ccccc2)c1=O
GI50 [1]: > 100 µM (inactive)
GI50 [2]: > 100 µM (inactive)
GI50 [3]: > 100 µM (inactive)
GI50 [4]: > 100 µM (inactive)
GI50 [5]: > 100 µM (inactive)
GI50 [6]: 72.3 µM (inactive)
GI50 [7]: 48.8 µM (inactive)
GI50 [8]: > 100 µM (inactive)
GI50 [9]: > 100 µM (inactive)
GI50 [10]: > 100 µM (inactive)
GI50 [11]: > 100 µM (inactive)
GI50 [12]: > 100 µM
GI50 [13]: 54.8 µM (inactive)
GI50 [14]: 79.1 µM (inactive)
GI50 [15]: > 100 µM (inactive)
GI50 [16]: > 100 µM (inactive)
GI50 [17]: > 100 µM (inactive)
GI50 [18]: > 100 µM (inactive)
GI50 [19]: > 100 µM (inactive)
GI50 [20]: > 100 µM (inactive)
GI50 [21]: > 100 µM (inactive)
GI50 [22]: > 100 µM (inactive)
GI50 [23]: 87.7 µM (inactive)
GI50 [24]: > 100 µM (inactive)
GI50 [25]: > 100 µM (inactive)
GI50 [26]: > 100 µM (inactive)
GI50 [27]: 39.2 µM (inactive)
GI50 [28]: > 100 µM (inactive)
GI50 [29]: > 100 µM (inactive)
GI50 [30]: > 100 µM (inactive)
GI50 [31]: > 100 µM (inactive)
GI50 [32]: > 100 µM (inactive)
GI50 [33]: > 100 µM (inactive)
GI50 [34]: > 100 µM (inactive)
GI50 [35]: > 100 µM (inactive)
GI50 [36]: > 100 µM (inactive)
GI50 [37]: > 100 µM (inactive)
GI50 [38]: > 100 µM (inactive)
GI50 [39]: 70.1 µM (inactive)
GI50 [40]: 26.7 µM (inactive)
GI50 [41]: > 100 µM (inactive)
GI50 [42]: 66.7 µM (inactive)
GI50 [43]: > 100 µM (inactive)
GI50 [44]: > 100 µM (inactive)
GI50 [45]: > 100 µM (inactive)
GI50 [46]: > 100 µM (inactive)
GI50 [47]: 67.8 µM (inactive)

Cc1c(S(=O)(=O)N/C(=N\O)Nc2ccc(Cl)c(Cl)c2)sc2ccc(Cl)cc12
GI50 [1]: 19.7 µM (inactive)
GI50 [2]: 18.1 µM (inactive)
GI50 [3]: 24.7 µM (inactive)
GI50 [4]: 12.1 µM (inactive)
GI50 [5]: 17.7 µM (inactive)
GI50 [6]: 18.5 µM (inactive)
GI50 [7]: 26.8 µM (inactive)
GI50 [8]: 17.9 µM (inactive)
GI50 [9]: 18.8 µM (inactive)
GI50 [48]: 12.9 µM (inactive)
GI50 [10]: 19.9 µM (inactive)
GI50 [11]: 17.8 µM (inactive)
GI50 [12]: 17.1 µM
GI50 [13]: 26.7 µM (inactive)
GI50 [49]: 18.5 µM (inactive)
GI50 [14]: 22.2 µM (inactive)
GI50 [15]: 14.4 µM (inactive)
GI50 [16]: 28.6 µM (inactive)
GI50 [50]: 17.5 µM (inactive)
GI50 [17]: 29.5 µM (inactive)
GI50 [18]: 16.9 µM (inactive)
GI50 [19]: 20.7 µM (inactive)
GI50 [51]: 21.5 µM (inactive)
GI50 [52]: 24.9 µM (inactive)
GI50 [20]: 23.8 µM (inactive)
GI50 [21]: 17.9 µM (inactive)
GI50 [22]: 17.5 µM (inactive)
GI50 [53]: 34.1 µM (inactive)
GI50 [23]: 20.7 µM (inactive)
GI50 [24]: 20.9 µM (inactive)
GI50 [25]: 17.8 µM (inactive)
GI50 [27]: 15.9 µM (inactive)
GI50 [28]: 18.7 µM (inactive)
GI50 [54]: 14.5 µM (inactive)
GI50 [29]: 15.1 µM (inactive)
GI50 [55]: 21.6 µM (inactive)
GI50 [30]: 21.9 µM (inactive)
GI50 [31]: 18.6 µM (inactive)
GI50 [32]: 34.7 µM (inactive)
GI50 [56]: 16.9 µM (inactive)
GI50 [33]: 24.8 µM (inactive)
GI50 [57]: 16 µM (inactive)
GI50 [58]: 23 µM (inactive)
GI50 [34]: 21.4 µM (inactive)
GI50 [35]: 18.9 µM (inactive)
GI50 [36]: 15.1 µM (inactive)
GI50 [37]: 18.7 µM (inactive)
GI50 [38]: 19.1 µM (inactive)
GI50 [41]: 39.4 µM (inactive)
GI50 [42]: 14.4 µM (inactive)
GI50 [43]: 17.7 µM (inactive)
GI50 [44]: 21.3 µM (inactive)
GI50 [45]: 19.9 µM (inactive)
GI50 [46]: 17.7 µM (inactive)
GI50 [47]: 20.3 µM (inactive)
